As usually defined, the Ki is a dissociation constant, usually derived from enzyme kinetics or from competition with a known ligand.

Each structure is given as a SMILES string.

T1 sequence (P47898 whole entry): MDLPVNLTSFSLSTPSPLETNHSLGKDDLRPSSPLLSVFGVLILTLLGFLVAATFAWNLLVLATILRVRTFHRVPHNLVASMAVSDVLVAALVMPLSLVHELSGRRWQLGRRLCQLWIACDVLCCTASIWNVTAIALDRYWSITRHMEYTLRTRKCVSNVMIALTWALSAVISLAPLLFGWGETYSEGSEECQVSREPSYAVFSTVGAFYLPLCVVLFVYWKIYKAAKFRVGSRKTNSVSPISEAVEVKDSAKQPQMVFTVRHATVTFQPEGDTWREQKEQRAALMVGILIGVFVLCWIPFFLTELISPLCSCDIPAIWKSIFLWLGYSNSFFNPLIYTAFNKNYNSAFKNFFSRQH

This assay concerns the target T1, recombinant human 5-HT5A receptor (Homo sapiens, UniProt P47898).
T1 construct: expressed in transfected cells; host or cells: HEK-EBNA (Human Embryonic Kidney-EBNA) cells, transient cDNA expression; membranes
The experiment in a line: [3H]LSD radioligand binding assay. As to conditions: [3H]LSD (approximately 1 nM); membranes from transiently expressed 5-HT5A receptors in HEK-EBNA cells; Ki by Cheng-Prussoff equation. On the procedure: Compounds of the invention were tested for 5-HT5A activity in the following assay.
A [^3H]LSD radioligand binding assay was used to determine the affinity of the compounds for the recombinant human 5-HT5A receptor, in membranes from transiently (cDNA) expressed 5-HT5A receptors in Human Embryonic Kidney-EBNA (HEK-EBNA) cells. Assay buffer consisted of Tris (50 mM) buffer containing 1 mM EGTA, 10 mM MgCl2 (pH 7.4) and 10 μM pargyline. The binding assay was carried out in 96-well-plates in the presence of [^3H]LSD (approximately 1 nM), approximately 2 μg/well of membrane protein, and 0.5 mg of Ysi-poly-l-lysine SPA beads in a final volume of 200 μl of buffer. Non-specific binding was defined using methiothepin 2 μM. Compounds were tested at 10 concentrations. All assays were conducted in duplicate and repeated at least two times. Assay plates were incubated for 120 min at room temperature before centrifugation. Bound ligand was determined using a Packard Topcount scintillation counter. IC50 values were calculated using a non-linear curve fitting program and Ki values calated using the Cheng-Prussoff equation.
For `Clc1ccc2c(c1Cl)CNC(NCCOc1ccccc1)=N2` [Example 14, (5,6-Dichloro-3,4-dihydro-quinazolin-2-yl)-(2-phenoxy-ethyl)-amine hydroiodide], the inhibition constant (Ki) worked out at 76 nM.
The value for `Fc1cccc(OCCNC2=Nc3ccccc3CN2)c1` [Example 17, (3,4-Dihydro-quinazolin-2-yl)-[2-(3-fluoro-phenoxy)-ethyl]-amine] was 96 nM.
As for `Fc1cccc2c1CNC(NCCOc1ccccc1)=N2` [Example 7, (5-Fluoro-3,4-dihydro-quinazolin-2-yl)-(2-phenoxy-ethyl)-amine hydroiodide], the figure is 30 nM; as for `Fc1ccccc1OCCNC1=Nc2ccccc2CN1` [Example 6, (3,4-Dihydro-quinazolin-2-yl)-[2-(2-fluoro-phenoxy)-ethyl]-amine], 34 nM.
`Cc1ccc2c(c1)CNC(NCCOc1ccccc1Cl)=N2` [Example 58, [2-(2-Chloro-phenoxy)-ethyl]-(6-methyl-3,4-dihydro-quinazolin-2-yl)-amine]: the inhibitory constant (Ki) turned out to be 53.8 nM.
As for `COc1cccc(OCCNC2=Nc3ccccc3CN2)c1` [Example 16, (3,4-Dihydro-quinazolin-2-yl)-[2-(3-methoxy-phenoxy)-ethyl]-amine], the figure is 96 nM; as for `Fc1ccc(Br)c(OCCNC2=Nc3ccccc3CN2)c1` [Example 46, [2-(2-Bromo-5-fluoro-phenoxy)-ethyl]-(3,4-dihydro-quinazolin-2-yl)-amine], 89 nM.
As for `COc1ccccc1OCCNC1=Nc2ccccc2CN1` [Example 1, (3,4-Dihydro-quinazolin-2-yl)-[2-(2-methoxy-phenoxy)-ethyl]-amine], the figure is 7.5 nM; as for `CSc1ccccc1OCCNC1=Nc2ccccc2CN1` [Example 35, (3,4-Dihydro-quinazolin-2-yl)-[2-(2-methylsulfanyl-phenoxy)-ethyl]-amine], 35.7 nM.
Regarding `COc1ccccc1OCCNC1=Nc2ccc(C)cc2CN1` [Example 64, [2-(2-Methoxy-phenoxy)-ethyl]-(6-methyl-3,4-dihydro-quinazolin-2-yl)-amine], the Ki was 19.7 nM.
The value for `Fc1cccc2c1CNC(NCCOc1ccccc1Cl)=N2` [Example 59, [2-(2-Chloro-phenoxy)-ethyl]-(5-fluoro-3,4-dihydro-quinazolin-2-yl)-amine] was 48.4 nM; that for `C/C=C/c1ccccc1OCCNC1=Nc2ccccc2CN1` [Example 34, (3,4-Dihydro-quinazolin-2-yl)-[2-(2-propenyl-phenoxy)-ethyl]-amine] was 58.7 nM.
As for `COc1cccc(F)c1OCCNC1=Nc2ccccc2CN1` [Example 45, (3,4-Dihydro-quinazolin-2-yl)-[2-(2-fluoro-6-methoxy-phenoxy)-ethyl]-amine], the figure is 42.9 nM; as for `c1ccc(OCCNC2=Nc3ccccc3CN2)cc1` [Example 5, (3,4-Dihydro-quinazolin-2-yl)-(2-phenoxy-ethyl)-amine hydroiodide], 42 nM; as for `Cc1cccc2c1CNC(NCCOc1ccccc1)=N2` [Example 10, (5-Methyl-3,4-dihydro-quinazolin-2-yl)-(2-phenoxy-ethyl)-amine hydroiodide], 46 nM.
With `Clc1cccc2c1CNC(NCCOc1ccccc1)=N2` [Example 9, (5-Chloro-3,4-dihydro-quinazolin-2-yl)-(2-phenoxy-ethyl)-amine hydroiodide], the inhibition constant Ki is 53 nM.
As for `N#Cc1ccccc1OCCNC1=Nc2ccccc2CN1` [Example 38, 2-[2-(3,4-Dihydro-quinazolin-2-ylamino)-ethoxy]-benzonitrile], the figure is 54 nM; as for `CCOc1ccccc1OCCNC1=Nc2ccccc2CN1` [Example 8, (3,4-Dihydro-quinazolin-2-yl)-[2-(2-ethoxy-phenoxy)-ethyl]-amine], 38 nM; as for `Clc1ccccc1OCCNC1=Nc2ccccc2CN1` [Example 3, [2-(2-Chloro-phenoxy)-ethyl]-(3,4-dihydro-quinazolin-2-yl)-amine], 19 nM.
As for `Clc1cccc(OCCNC2=Nc3ccccc3CN2)c1` [Example 18, [2-(3-Chloro-phenoxy)-ethyl]-(3,4-dihydro-quinazolin-2-yl)-amine], the figure is 100 nM; as for `Brc1ccccc1OCCNC1=Nc2ccccc2CN1` [Example 37, [2-(2-Bromo-phenoxy)-ethyl]-(3,4-dihydro-quinazolin-2-yl)-amine], 22.2 nM.
The value for `Fc1ccc2c(c1)CNC(NCCOc1ccccc1)=N2` [Example 2, (6-Fluoro-3,4-dihydro-quinazolin-2-yl)-(2-phenoxy-ethyl)-amine] was 18 nM; that for `COc1cccc(OC)c1OCCNC1=Nc2ccccc2CN1` [Example 41, (3,4-Dihydro-quinazolin-2-yl)-[2-(2,6-dimethoxy-phenoxy)-ethyl]-amine] was 90.3 nM; that for `COc1ccccc1OCCNC1=Nc2cccc(F)c2CN1` [Example 67, (5-Fluoro-3,4-dihydro-quinazolin-2-yl)-[2-(2-methoxy-phenoxy)-ethyl]-amine] was 23.6 nM.
As to `c1ccc(COc2ccccc2OCCNC2=Nc3ccccc3CN2)cc1` [Example 39, [2-(2-Benzyloxy-phenoxy)-ethyl]-(3,4-dihydro-quinazolin-2-yl)-amine], the inhibition constant Ki came to 86.7 nM.
The value for `COc1ccccc1OCCNC1=Nc2ccc(F)cc2CN1` [Example 29, (6-Fluoro-3,4-dihydro-quinazolin-2-yl)-[2-(2-methoxy-phenoxy)-ethyl]-amine] was 19.9 nM; that for `COc1ccc2c(c1)CNC(NCCOc1ccccc1Cl)=N2` [Example 56, [2-(2-Chloro-phenoxy)-ethyl]-(6-methoxy-3,4-dihydro-quinazolin-2-yl)-amine] was 83.1 nM.
For the molecule `COc1ccc2c(c1)CNC(NCCOc1ccccc1OC)=N2` [Example 62, (6-Methoxy-3,4-dihydro-quinazolin-2-yl)-[2-(2-methoxy-phenoxy)-ethyl]-amine], the inhibition constant Ki was found to be 53.6 nM.
For the molecule `FC(F)(F)Oc1ccccc1OCCNC1=Nc2ccccc2CN1` [Example 13, (3,4-Dihydro-quinazolin-2-yl)-[2-(2-trifluoromethoxy-phenoxy)-ethyl]-amine], the inhibition constant (Ki) amounted to 72 nM.
Take `Cc1cccc(OCCNC2=Nc3ccccc3CN2)c1` [Example 12, (3,4-Dihydro-quinazolin-2-yl)-(2-m-tolyloxy-ethyl)-amine]: the inhibition constant (Ki) worked out at 64 nM.
The value for `COc1ccc2c(c1)CNC(NCCOc1ccccc1)=N2` [Example 15, (6-Methoxy-3,4-dihydro-quinazolin-2-yl)-(2-phenoxy-ethyl)-amine] was 76 nM; that for `CC1NC(NCCOc2ccccc2)=Nc2ccccc21` (stereo not shown) [Example 11, (4-Methyl-3,4-dihydro-quinazolin-2-yl)-(2-phenoxy-ethyl)-amine hydroiodide] was 58 nM.
In the case of `COc1ccc(C)cc1OCCNC1=Nc2ccccc2CN1` [Example 44, (3,4-Dihydro-quinazolin-2-yl)-[2-(2-methoxy-5-methyl-phenoxy)-ethyl]-amine], the Ki came out at 82.5 nM.
For the molecule `Cc1ccc2c(c1)CNC(NCCOc1ccccc1)=N2` [Example 4, (6-Methyl-3,4-dihydro-quinazolin-2-yl)-(2-phenoxy-ethyl)-amine], the Ki is 25 nM.

For the origin of these results see patent publication US7781441B2, “(3,4-dihydro-quinazolin-2-yl)-(2-aryloxy-ethyl)-amine” (Hoffmann-La Roche Inc., priority 2005, dated 2010).
